Reference: patent US10611764B2 (Wisconsin Alumni Research Foundation, priority 2017, dated 2020)
Residue numbers refer to the chain shown, from its start. Read-outs that look alike come from different tables or passages of the source. Values belong to the compound of their own block, whether it stands above or below them.

Legend:
[1] = molecular target: T1, mouse AHR (mAHR B1-allele) (Mus musculus, UniProt P30561, M589L/N533S/P471L); experiment: cell-based; settings: for biological response, eight-hour versus four-hour induction: 8 h vs 4 h
T1 sequence (P30561 10-805 P471L/N533S/M589L): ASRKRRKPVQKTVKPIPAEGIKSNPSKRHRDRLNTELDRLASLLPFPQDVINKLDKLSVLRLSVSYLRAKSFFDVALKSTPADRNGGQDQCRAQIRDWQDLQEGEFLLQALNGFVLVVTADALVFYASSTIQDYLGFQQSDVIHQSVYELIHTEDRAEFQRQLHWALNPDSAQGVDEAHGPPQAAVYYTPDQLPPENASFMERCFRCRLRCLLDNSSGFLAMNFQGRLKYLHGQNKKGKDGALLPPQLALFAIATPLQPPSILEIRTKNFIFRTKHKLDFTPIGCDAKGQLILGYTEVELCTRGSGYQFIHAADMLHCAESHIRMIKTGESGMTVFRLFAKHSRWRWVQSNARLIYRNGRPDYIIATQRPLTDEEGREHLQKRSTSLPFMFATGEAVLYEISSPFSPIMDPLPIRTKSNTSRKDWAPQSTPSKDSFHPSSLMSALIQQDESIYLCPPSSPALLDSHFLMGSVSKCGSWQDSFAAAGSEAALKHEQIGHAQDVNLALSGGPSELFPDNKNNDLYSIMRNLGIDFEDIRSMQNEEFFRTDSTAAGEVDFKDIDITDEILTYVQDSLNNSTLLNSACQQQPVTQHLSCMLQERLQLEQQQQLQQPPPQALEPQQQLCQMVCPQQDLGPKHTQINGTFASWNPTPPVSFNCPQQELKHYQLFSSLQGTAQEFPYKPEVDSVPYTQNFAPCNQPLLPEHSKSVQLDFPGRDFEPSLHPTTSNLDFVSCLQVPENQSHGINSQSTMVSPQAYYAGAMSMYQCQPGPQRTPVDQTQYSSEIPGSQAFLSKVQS
Protocol: The wild type and mutant mAHR were cloned into the XhoI/SalI cloning sites of pTARGET (Promega, Madison, Wis.) using routine PCR and molecular cloning procedures using the pSport-mAHR plasmid (PL65) as template (Dolwick, Swanson et al. 1993). For recombinant expression of mAHR, COS-1 cells were cultured in 6 cm dishes and transfected with 2 μg of wild-type or mutant mAHR expression vector. Twenty-four hours after transfection, cells were collected, and the whole cell extracts were prepared by celLytic M reagent (Sigma-Aldrich, St Louis, Mo.). 100 μg of whole cell extract was analyzed by western blot using antibodies that specifically recognize the mAHR (bear-2) and β-actin (Sigma).
COS-1 cells were cultured in 96-well plates and transiently transfected with pTarget vector containing the expression cassette of wild-type or mutant mAHR, or empty vector (3 ng), together with pGudLu6.1 DREs-driven luciferase reporter vector (14 ng) (Han, Nagy et al. 2004) and TK-renilla luciferase vector (3 ng) (Invitrogen, Carlsbad Calif.). […] The expressed luciferase activity was measured by ENSPIRE plate reader (Perkin Elmer, USA). Data analysis and simulation of dose response curves were performed using GraphPad Prism 5 (GraphPad software Inc., La Jolla, Calif.). The experiments were performed in triplicate and repeated at least three times. Representative results of one repeat are shown as mean±SEM.

mAHR H285A mutant = experiment: Luciferase reporter gene assay, mutant mAHR H285A in COS-1 cells; type: cell-based, mouse; settings: relative to WT mAHR
AHR = molecular target: T2, AHR (Rattus norvegicus, UniProt P41738); settings: Rannug, Rannug et al. 1987; cited from earlier work
T2 sequence (P41738 10-853): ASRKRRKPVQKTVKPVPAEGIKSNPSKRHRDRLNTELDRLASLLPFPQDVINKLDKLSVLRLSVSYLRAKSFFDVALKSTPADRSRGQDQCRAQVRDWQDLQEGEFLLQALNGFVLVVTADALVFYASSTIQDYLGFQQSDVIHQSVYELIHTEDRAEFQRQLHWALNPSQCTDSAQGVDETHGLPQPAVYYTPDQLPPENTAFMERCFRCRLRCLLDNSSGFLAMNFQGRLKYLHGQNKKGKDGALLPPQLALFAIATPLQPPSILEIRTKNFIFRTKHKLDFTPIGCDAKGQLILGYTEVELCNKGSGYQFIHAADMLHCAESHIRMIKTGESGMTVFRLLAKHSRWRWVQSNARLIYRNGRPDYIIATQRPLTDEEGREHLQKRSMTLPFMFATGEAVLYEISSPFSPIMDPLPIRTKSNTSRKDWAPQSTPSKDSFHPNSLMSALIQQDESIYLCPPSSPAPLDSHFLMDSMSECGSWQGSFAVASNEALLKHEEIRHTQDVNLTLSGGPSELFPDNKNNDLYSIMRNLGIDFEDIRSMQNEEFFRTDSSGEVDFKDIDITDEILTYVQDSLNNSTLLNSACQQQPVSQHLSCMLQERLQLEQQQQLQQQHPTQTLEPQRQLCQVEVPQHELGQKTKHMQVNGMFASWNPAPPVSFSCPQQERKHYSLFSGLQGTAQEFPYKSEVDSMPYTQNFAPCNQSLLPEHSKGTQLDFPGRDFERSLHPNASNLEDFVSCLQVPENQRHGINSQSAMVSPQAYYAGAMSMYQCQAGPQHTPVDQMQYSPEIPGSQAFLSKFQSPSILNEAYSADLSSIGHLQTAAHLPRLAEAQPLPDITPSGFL

MH1C1 rat hepatoma cells = MH1C1 rat hepatoma cells exposed for three hours; cited from earlier work
[2] = molecular target: T3, mAHR genetic variant A375V (D-allele) (Mus musculus, UniProt P30561, A375V/F348L/M589L/N533S/P471L); experiment: Luciferase reporter gene assay, mAHR genetic variant A375V (D-allele); type: cell-based; settings: compared with B-allele
T3 construct: expressed in transfected cells; host or cells: COS-1
T3 sequence (P30561 10-805 F348L/A375V/P471L/N533S/M589L): T1 sequence (P30561 10-805 P471L/N533S/M589L) with F339L, A366V
Description: Physiological relevant ligands of the AHR would be expected to activate polymorphic receptors within species and structurally variant receptors across species. As a model of this idea an important endogenous AHR ligands would be expected to activate AHR genetic variants arising from the murine Ahr B1 and D alleles. These two well-known genetic variants, harbor a key sequence variation at residue 375, with alanine in the B1 allele, and valine in the D allele (A375V). Residue 375 is located near the medial position of the AHR-LBD. […] These observations support the notion that AHR genetic variants might function through these endogenous ligands to control normal physiological functions.

[3] = tested on: A375V variant of AHR (D allele); settings: Chang 1993, Ema 1994, Poland 1994; cited from earlier work
mAHR Q377A mutant = molecular target: T4, mAHR Q377A mutant (Mus musculus, UniProt P30561, Q377A); experiment: Luciferase reporter gene assay, mutant mAHR Q377A in COS-1 cells; type: cell-based; settings: relative to WT mAHR
T4 construct: expressed in transfected cells; host or cells: COS-1
T4 sequence (P30561 10-805 Q377A limits assumed): T1 sequence (P30561 10-805 P471L/N533S/M589L) with Q368A, L462P, S524N, L580M

[4] = tested on: mutant AHR, F289K, F281K, I373K, and L347R; experiment: Luciferase reporter gene assay, mAHR hydrophobic pocket mutants in COS-1 cells; type: cell-based, mouse

Compound: 6-formylindolo [3,2-b] carbazole [FICZ]
biological response, eight-hour versus four-hour induction ([1]; COS-1 cells): slightly reduced | activity in the 20-hour induction ([1]; COS-1 cells, 20 h vs 8 h and 4 h): further reduced | EC50 ([1]; read-out: EC50 of AHR activation, COS-1 cells expressing mAHR, luciferase reporter, 4 hours): 0.036 nM | effect of H285A mutation on AHR induction activity (mAHR H285A mutant): remains partially receptive | Kd (AHR): 0.07 nM | EC50 (MH1C1 rat hepatoma cells): 0.034 nM

Compound: O=c1cc[nH]c2ccccc12 [4(1H)-Quinolinone (4-HQ), 4(1H)-Quinolinone]
activity in AHR induction (in words) ([1]; known chemical derivatives of kynurenine, FIG. 10b): did not show any activity

AC50 [1]: ~5 nM
Compound: c1ccc2c(c1)NC1=C3C2=NCC[C@H]3c2ccccc2N1 [274 ion fraction]

Compound: c1ccc2c(c1)cc1ccc3cccc4ccc2c1c34 [BaP, benzo[a]pyrene]
activation of the A375V D-allele [2]: barely stimulate

Compound: Clc1cc2c(cc1Cl)Oc1cc(Cl)c(Cl)cc1O2 [TCDD, 2,3,7,8-tetrachlorodibenzo-p-dioxin]
binding to the A375V variant [3]: weakened binding

Compound: Nc1ccccc1C(=O)CC(N)C(=O)O (centres unmarked) [kynurenine (3 d, 6 m)]
EC50 [1]: 2.7 nM

Compound: Nc1ccccc1C(=O)CC(N)C(=O)O (centres unmarked) [kynurenine]
fold increase of activity by incubation or long-term storage [1]: 100-1000 fold | biological response, eight-hour versus four-hour induction ([1]; COS-1 cells): higher biological response | EC50 ([1]; EC50 of AHR activation, COS-1 cells expressing mAHR, luciferase reporter, 4 hours): ~13000 nM | fold increase of AHR induction by incubation ([1]; after 18 days at room temperature): ~100 fold | fold increase of AHR induction by incubation ([1]; after three days at 37° C.): ~100 fold | maximum activity, higher than BaP ([1]; relative to BaP, FIG. 2A): 60% | maximum AHR activation, higher than that induced by FICZ ([1]; relative to FICZ, FIG. 1A): ~40% | effect of Q377A mutation on AHR induction activity (mAHR Q377A mutant): barely affected | effect of H285A mutation on AHR induction activity (mAHR H285A mutant): completely disrupts | effect of F289K and F281K mutations on responsiveness of AHR ([4]; F289K, F281K): completely abolished | effect of mutation of other hydrophobic residues to lysine or arginine on activity ([4]; I373K, L347R, FIG. 1c): completely abolished | activation of the A375V D-allele [2]: readily activate
